Laboratory results reported in ChEMBL document CHEMBL1201862, “PubChem BioAssay data set” (2004).
Calls of active or inactive are those of the source.

Columns and labels:
[1] = molecular target: G-protein coupled receptor 55 (Homo sapiens, UniProt Q9Y2T6); assay: inhibition of LPI-stimulated GPR55 beta-arrestin translocation – imaging, U2OS, beta-arrestin-GFP, LPI agonist, primary screen (AID 2013); assay type: functional;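 further: antagonist potency measured as reduced agonist-driven arrestin aggregation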
Chain of G-protein coupled receptor 55 (Q9Y2T6 whole entry): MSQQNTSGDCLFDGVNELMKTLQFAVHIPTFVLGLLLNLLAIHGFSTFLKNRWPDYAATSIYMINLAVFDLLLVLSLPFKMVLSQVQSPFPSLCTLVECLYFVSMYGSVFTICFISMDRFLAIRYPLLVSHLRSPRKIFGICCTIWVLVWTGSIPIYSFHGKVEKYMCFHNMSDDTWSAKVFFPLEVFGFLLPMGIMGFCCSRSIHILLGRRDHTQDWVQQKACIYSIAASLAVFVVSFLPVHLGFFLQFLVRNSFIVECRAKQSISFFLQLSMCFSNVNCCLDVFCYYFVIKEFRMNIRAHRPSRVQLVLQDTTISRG

[2] = molecular target: T1, Sphingosine 1-phosphate receptor 4 (Homo sapiens, UniProt O95977); assay: Fluorescence dose response cell-based high throughput screening assay for antagonists of the Sphingosine 1-Phosphate Receptor 4 (S1P4). [Related pubchem assays: 1524 (Confirmation in triplicates.), 1510 (Primary screen.)]; assay type: functional
T1 sequence (O95977 whole entry): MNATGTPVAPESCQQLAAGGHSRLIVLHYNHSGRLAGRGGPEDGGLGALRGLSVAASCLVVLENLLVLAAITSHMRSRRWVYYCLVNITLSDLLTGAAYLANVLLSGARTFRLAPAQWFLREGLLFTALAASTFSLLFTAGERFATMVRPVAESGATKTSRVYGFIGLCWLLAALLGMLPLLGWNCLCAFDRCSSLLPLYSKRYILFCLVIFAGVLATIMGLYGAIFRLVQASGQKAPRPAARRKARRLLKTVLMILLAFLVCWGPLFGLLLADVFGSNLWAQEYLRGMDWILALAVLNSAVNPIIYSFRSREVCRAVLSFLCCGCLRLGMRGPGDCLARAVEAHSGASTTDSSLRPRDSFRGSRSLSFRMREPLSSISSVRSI

[3] = molecular target: Photoreceptor-specific nuclear receptor (Homo sapiens, UniProt Q9Y5X4); assay type: functional;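 further: potency for compounds that break the NR2E3 corepressor complex and count as activators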
Chain of Photoreceptor-specific nuclear receptor (Q9Y5X4 whole entry): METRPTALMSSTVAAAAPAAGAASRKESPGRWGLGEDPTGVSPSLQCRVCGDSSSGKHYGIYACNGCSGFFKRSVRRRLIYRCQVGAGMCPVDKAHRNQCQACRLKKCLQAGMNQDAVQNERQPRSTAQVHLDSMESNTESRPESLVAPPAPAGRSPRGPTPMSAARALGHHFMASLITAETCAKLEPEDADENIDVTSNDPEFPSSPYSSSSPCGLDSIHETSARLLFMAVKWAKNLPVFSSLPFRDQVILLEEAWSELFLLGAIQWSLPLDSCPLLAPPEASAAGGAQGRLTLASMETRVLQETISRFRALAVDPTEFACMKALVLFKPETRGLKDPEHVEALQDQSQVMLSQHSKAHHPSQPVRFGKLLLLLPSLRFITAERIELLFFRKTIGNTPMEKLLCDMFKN

[4] = molecular target: T2, Apoptotic protease-activating factor 1 (Homo sapiens, UniProt O14727); assay type: functional
T2 sequence (O14727 whole entry): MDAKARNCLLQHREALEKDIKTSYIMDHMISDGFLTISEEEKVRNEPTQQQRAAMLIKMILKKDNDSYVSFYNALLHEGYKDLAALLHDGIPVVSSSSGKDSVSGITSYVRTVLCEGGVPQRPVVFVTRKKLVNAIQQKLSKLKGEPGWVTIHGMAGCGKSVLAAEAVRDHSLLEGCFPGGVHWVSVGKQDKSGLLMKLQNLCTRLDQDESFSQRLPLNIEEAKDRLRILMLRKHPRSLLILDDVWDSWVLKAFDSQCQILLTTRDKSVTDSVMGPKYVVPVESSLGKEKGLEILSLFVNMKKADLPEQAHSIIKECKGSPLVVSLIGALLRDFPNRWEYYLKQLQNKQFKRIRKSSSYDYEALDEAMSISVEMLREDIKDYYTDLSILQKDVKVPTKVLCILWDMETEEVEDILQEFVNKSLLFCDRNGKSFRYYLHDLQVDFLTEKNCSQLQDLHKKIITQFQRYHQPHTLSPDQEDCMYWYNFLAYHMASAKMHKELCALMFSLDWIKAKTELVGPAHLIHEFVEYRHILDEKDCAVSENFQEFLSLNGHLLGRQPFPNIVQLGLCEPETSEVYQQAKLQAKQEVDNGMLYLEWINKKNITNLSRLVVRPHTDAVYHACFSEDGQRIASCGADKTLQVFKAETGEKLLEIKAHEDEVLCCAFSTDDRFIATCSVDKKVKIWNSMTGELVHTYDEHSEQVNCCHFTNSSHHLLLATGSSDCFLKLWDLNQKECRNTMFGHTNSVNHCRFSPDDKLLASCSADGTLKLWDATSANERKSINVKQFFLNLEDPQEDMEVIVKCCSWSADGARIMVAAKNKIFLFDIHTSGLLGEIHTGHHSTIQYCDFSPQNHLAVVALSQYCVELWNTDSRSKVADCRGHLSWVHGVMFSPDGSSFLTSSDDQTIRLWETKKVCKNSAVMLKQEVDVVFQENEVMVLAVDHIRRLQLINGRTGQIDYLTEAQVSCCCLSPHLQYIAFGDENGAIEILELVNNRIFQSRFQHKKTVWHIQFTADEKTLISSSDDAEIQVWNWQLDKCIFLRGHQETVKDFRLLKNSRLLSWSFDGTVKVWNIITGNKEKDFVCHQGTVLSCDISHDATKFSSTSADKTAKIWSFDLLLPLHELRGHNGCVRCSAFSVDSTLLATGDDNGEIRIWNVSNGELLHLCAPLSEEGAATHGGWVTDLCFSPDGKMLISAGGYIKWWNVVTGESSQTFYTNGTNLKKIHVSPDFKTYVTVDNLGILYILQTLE

BJ [5] = assay: cells; assay type: functional, cell-based; conditions: Homo sapiens
BJ [6] = assay: BJ-TERT fibroblast viability loss – cell-based, RAS-independent, luminescence, dose response (AID 1933); assay type: functional; conditions: Homo sapiens
[7] = THP-1 cell cytotoxicity, dose response, cytotoxicity control for non-replicating M. tuberculosis project (AID 489025); assay type: functional
[8] = Vero E6 cell cytotoxicity, dose response, cytotoxicity control for non-replicating M. tuberculosis project, secondary assay (AID 492998); assay type: functional, VeroE6; conditions: Vero C1008

Cn1nc(-c2ccc(Cl)cc2)nc2c(=O)n(C)c(=O)nc1-2
IC50 [1]: 7.35 µM (active) | IC50 [2]: 0.396 µM (active) | IC50 [3]: > 39.8 µM (not active)

CCCCNc1cc(NC(C)=O)cc2cc(OC)c(OC)cc12
IC50 [4]: 3.62 µM (active)

O=C(Cc1ccc([N+](=O)[O-])cc1)N/N=C/c1ccc([N+](=O)[O-])o1
EC50 (BJ [5]): 15.6 µM (active) | EC50 (BJ [6]): > 150 µM (not active) | CC50 [7]: 6.26 µM (active) | CC50 [8]: > 20 µM (active)
